From US20220324835A1 (Nurix Therapeutics, Inc., priority 2018, published 2022)

Columns and labels:
[1] = target: T1, Cbl-b (Homo sapiens, UniProt Q13191); assay: Cbl-b inhibition assay (Cbl-b activity assay, FRET, Biological Example 1; 100 mM NaCl, 60 nM Src kinase); format: biochemical; conditions: upper bound stated in text lists; read-out: IC50 values in the Cbl-b inhibition assay of Biological Example 1
Procedure, shortened: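 TR-FRET assay using N-terminal biotinylated Avi-tagged Cbl-b bound to streptavidin-terbium, Src kinase for Cbl-b phosphorylation, and UbcH5B irreversibly conjugated to Bodipy-Fluorescein-ubiquitin. Phosphorylated Cbl-b binds UbcH5B-Ub, bringing the fluorophores together; inhibition is read as loss of FRET signal.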

[2] = tested on: T-cell; assay: IL-2 secretion from T-cells co-stimulated with anti-CD3 and anti-CD28 antibody (Biological Example 2); format: cell-based, human; conditions: Homo sapiens, T-cell, primary human total T-cells, baseline = anti-CD3/anti-CD28 stimulated cells without inhibitor, read-out: IL-2 secretion, Anti-CD3/Anti-CD28 stimulation, fold change over baseline; for fold induction at 0.3 µM: 0.3 μM compound; for fold induction at 1 µM: 1 μM compound; for fold induction at 4 µM: 4 μM compound
Procedure, shortened: (§1)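 Values are fold-change over baseline: readings (IL-2 release, CD25 staining) from inhibitor-treated T-cells divided against untreated cells […]. No detailed procedure stated.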

[3] = tested on: T-cell; assay: CD25 cell surface staining on T-cells co-stimulated with anti-CD3 and anti-CD28 antibody (Biological Example 2); format: cell-based, human; conditions: Homo sapiens, T-cell, primary human total T-cells, baseline = anti-CD3/anti-CD28 stimulated cells without inhibitor, read-out: CD25 staining, Anti-CD3/Anti-CD28 stimulation, fold change over baseline; for fold induction at 0.3 µM: 0.3 μM compound; for fold induction at 1 µM: 1 μM compound; for fold induction at 4 µM: 4 μM compound
Procedure, shortened: as §1

[4] = target: T1, Cbl-b; assay: Cbl-b activity assay (Cbl-b inhibition assay), TR-FRET of Cbl-b interaction with UbcH5B-Ub; format: biochemical; conditions: assay buffer with 100 mM NaCl, 60 nM Src kinase; read-out: Cbl-b activity IC50
Procedure, shortened: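 Compound-treated Cbl-b was incubated 1.5 h with Src kinase (60 nM final; 30 nM for asterisked values, which also used 50 mM instead of 100 mM NaCl), 1 mM ATP and 5 mM MgCl2. Binding to fluorescent Ub-loaded UbcH5B (C85K mutant) was then read by TR-FRET after 1 h more.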

T1 sequence (Q13191 36-427): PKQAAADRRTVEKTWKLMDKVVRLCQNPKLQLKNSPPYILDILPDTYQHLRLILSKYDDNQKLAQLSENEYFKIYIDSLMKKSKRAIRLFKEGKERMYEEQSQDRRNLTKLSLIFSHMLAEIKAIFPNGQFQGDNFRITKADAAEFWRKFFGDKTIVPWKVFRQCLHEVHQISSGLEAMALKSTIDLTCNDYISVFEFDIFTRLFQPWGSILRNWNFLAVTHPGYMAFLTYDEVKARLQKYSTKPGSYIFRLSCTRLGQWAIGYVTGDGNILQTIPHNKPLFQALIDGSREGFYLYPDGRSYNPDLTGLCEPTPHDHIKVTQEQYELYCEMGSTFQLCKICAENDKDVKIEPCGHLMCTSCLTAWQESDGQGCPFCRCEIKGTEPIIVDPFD

SMILES	IC50 [1]	fold induction at 0.3 µM [2]	fold induction at 1 µM [2]	fold induction at 4 µM [2]	fold induction at 0.3 µM [3]	fold induction at 1 µM [3]	fold induction at 4 µM [3]	IC50 [4]
Cc1n[nH]c(C)c1-c1cc2c(c(C(F)(F)F)c1)CN(c1cccc(C3(Cc4nncn4C)COC3)c1)C2=O [Compound 385, 6-(3,5-dimethyl-1H-pyrazol-4-yl)-2-(3-{3-[(4-methyl-4H-1,2,4-triazol-3-yl)methyl]oxetan-3-yl}phenyl)-4-(trifluoromethyl)-2,3-dihydro-1H-isoindol-1-one]	≤ 100 nM	1.01 to 2.5	2.51 to 5	> 7.5	1.01 to 1.3	1.01 to 1.3	1.31 to 1.5	< 100 nM
C[C@H](Cc1nncn1C)c1cccc(N2Cc3c(cc(CN4CC(O)C4)cc3C(F)(F)F)C2=O)c1 [Compound 393, (R)-6-((3-hydroxyazetidin-1-yl)methyl)-2-(3-(1-(4-methyl-4H-1,2,4-triazol-3-yl)propan-2-yl)phenyl)-4-(trifluoromethyl)isoindolin-1-one]	≤ 100 nM	2.51 to 5	> 7.5	> 7.5	1.01 to 1.3	1.31 to 1.5	1.31 to 1.5	< 100 nM
C[C@H](Cc1nncn1C)c1cccc(N2Cc3c(cc(CN4CC(C)(O)C4)cc3C(F)(F)F)C2=O)c1 [Compound 397]	≤ 100 nM	2.51 to 5	> 7.5	> 7.5	1.01 to 1.3	1.31 to 1.5	1.31 to 1.5	< 100 nM
C[C@H](Cc1nncn1C)c1cccc(N2Cc3c(cc(CN4CC[C@](C)(O)C4)cc3C(F)(F)F)C2=O)c1 [Compound 398, 6-(((S)-3-hydroxy-3-methylpyrrolidin-1-yl)methyl)-2-(3-((R)-1-(4-methyl-4H-1,2,4-triazol-3-yl)propan-2-yl)phenyl)-4-(trifluoromethyl)isoindolin-1-one]	≤ 100 nM	2.51 to 5	5 to 7.5	> 7.5	1.01 to 1.3	1.31 to 1.5	1.31 to 1.5	< 100 nM
C[C@H](Cc1nncn1C)c1cccc(N2Cc3c(cc(CN4CC[C@H](F)C4)cc3C(F)(F)F)C2=O)c1 [Compound 399, 6-(((S)-3-fluoropyrrolidin-1-yl)methyl)-2-(3-((R)-1-(4-methyl-4H-1,2,4-triazol-3-yl)propan-2-yl)phenyl)-4-(trifluoromethyl)isoindolin-1-one]	≤ 100 nM	5 to 7.5	> 7.5	> 7.5	1.01 to 1.3	1.31 to 1.5	1.31 to 1.5	< 100 nM
Cn1cnnc1CC1(c2cccc(N3Cc4c(cc(CN5CC[C@H](F)C5)cc4C(F)(F)F)C3=O)c2)COC1 [Compound 410, 6-{[(3S)-3-fluoropyrrolidin-1-yl]methyl}-2-(3-{3-[(4-methyl-4H-1,2,4-triazol-3-yl)methyl]oxetan-3-yl}phenyl)-4-(trifluoromethyl)-2,3-dihydro-1H-isoindol-1-one]	≤ 100 nM	5 to 7.5	> 7.5	> 7.5	1.31 to 1.5	1.51 to 1.75	1.51 to 1.75	< 100 nM
C[C@@H](c1cc2c(c(C(F)(F)F)c1)CN(c1cccc(C3(Cc4nncn4C)COC3)c1)C2=O)N1CC[C@H](F)C1 [Compound 412, 6-((S)-1-((S)-3-fluoropyrrolidin-1-yl)ethyl)-2-(3-(3-((4-methyl-4H-1,2,4-triazol-3-yl)methyl)oxetan-3-yl)phenyl)-4-(trifluoromethyl)isoindolin-1-one]	≤ 100 nM	> 7.5	> 7.5	> 7.5	1.31 to 1.5	1.51 to 1.75	1.51 to 1.75	< 100 nM
C[C@H](c1cc2c(c(C(F)(F)F)c1)CN(c1cccc(C3(Cc4nncn4C)COC3)c1)C2=O)N1CC[C@H](F)C1 [Compound 413, 6-((R)-1-((S)-3-fluoropyrrolidin-1-yl)ethyl)-2-(3-(3-((4-methyl-4H-1,2,4-triazol-3-yl)methyl)oxetan-3-yl)phenyl)-4-(trifluoromethyl)isoindolin-1-one]	≤ 100 nM	5 to 7.5	> 7.5	> 7.5	1.31 to 1.5	1.51 to 1.75	1.31 to 1.5	< 100 nM
Cn1cnnc1CC1(c2cccc(N3Cc4c(cc(CN5CC(F)C5)cc4C(F)(F)F)C3=O)c2)COC1 [Compound 415, 6-((3-fluoroazetidin-1-yl)methyl)-2-(3-(3-((4-methyl-4H-1,2,4-triazol-3-yl)methyl)oxetan-3-yl)phenyl)-4-(trifluoromethyl)isoindolin-1-one]	≤ 100 nM	5 to 7.5	> 7.5	> 7.5	1.31 to 1.5	1.31 to 1.5	1.51 to 1.75	< 100 nM
Cn1cnnc1CC1(c2cccc(N3Cc4c(cc(CN5CC[C@@H](C#N)C5)cc4C(F)(F)F)C3=O)c2)COC1 [Compound 421, (R)-1-((2-(3-(3-((4-methyl-4H-1,2,4-triazol-3-yl)methyl)oxetan-3-yl)phenyl)-3-oxo-7-(trifluoromethyl)isoindolin-5-yl)methyl)pyrrolidine-3-carbonitrile]	≤ 100 nM	5 to 7.5	> 7.5	> 7.5	1.01 to 1.3	1.01 to 1.3	1.31 to 1.5	< 100 nM
Cn1cnnc1CC1(c2cccc(N3Cc4c(cc(CN5CC[C@H](C#N)C5)cc4C(F)(F)F)C3=O)c2)COC1 [Compound 422, (S)-1-((2-(3-(3-((4-methyl-4H-1,2,4-triazol-3-yl)methyl)oxetan-3-yl)phenyl)-3-oxo-7-(trifluoromethyl)isoindolin-5-yl)methyl)pyrrolidine-3-carbonitrile]	≤ 100 nM	5 to 7.5	> 7.5	> 7.5	1.31 to 1.5	1.31 to 1.5	1.31 to 1.5	< 100 nM
Cn1cnnc1CC1(c2cccc(N3Cc4c(cc(CN5C[C@H]6C[C@H]6C5)cc4C(F)(F)F)C3=O)c2)COC1 [Compound 429, 6-(((1R,5S)-3-azabicyclo[3.1.0]hexan-3-yl)methyl)-2-(3-(3-((4-methyl-4H-1,2,4-triazol-3-yl)methyl)oxetan-3-yl)phenyl)-4-(trifluoromethyl)isoindolin-1-one]	≤ 100 nM	> 7.5	> 7.5	> 7.5	1.31 to 1.5	1.31 to 1.5	1.51 to 1.75	< 100 nM
